This experiment deals with Maillard reaction (lysozyme / fructose, dimer formation). Kind of experiment: Maillard reaction-inhibiting effects (lysozyme dimer formation with fructose, SDS-PAGE densitometry). The experiment is classed as biochemical. The conditions noted are these: 10 mg/mL lysozyme, 200 mM fructose, pH 7.4, 37° C., 4 days, dimer formation inhibition rate. Here is the method:
This Example examined Maillard reaction-inhibiting effects using, as test compounds, the compounds produced in the above-described Examples and the commercially available substances arginine hydroxamate (Compound No. 111), tyrosine hydroxamate (Compound No. 112), and tryptophan hydroxamate (Compound No. 113). More specifically, 10 mg/mL lysozyme, 200 mM fructose, and each of the above-described test compounds dissolved in a 0.4 mM sodium phosphate buffer (pH 7.4) so as to provide a concentrations of 0.1, 0.3, 1, or 3 mM were incubated at 37° C. for 4 days. After the incubation, the samples were subjected to SDS-PAGE, stained with Coomassie Brilliant Blue R-250, and quantitated for the formed dimmers using a densitometer. The Maillard reaction-inhibiting activity was defined as the dimmer formation inhibition rate of a test compound calculated on the basis that the amount of dimmer is 100% in the absence of the test compound, using, as blank, the amount of dimer in the absence of fructose and the test compound.

Setting [1] is: test compound concentration 0.1 mM.
The mark [2] stands for this setting: test compound concentration 0.3 mM.
[3] abbreviates: test compound concentration 1 mM.
Where [4] appears, read: test compound concentration 3 mM.

Here are results for 22 molecules from patent US20080132539A1, “Hydroxamic Acid Derivative And Age Generation Inhibitor Containing The Derivative” (priority 2003, published 2008).

On to `CC(C)(C)c1ccc(Cn2cc(CC(N)C(=O)NO)c3ccccc32)cc1` (racemic) [Compound No. 106, (RS)-2-amino-3-[1-(4-t-butylbenzyl)-1H-indol-3-yl]-N-hydroxypropionamide], for which the “Maillard reaction-inhibiting activity (%)” value by setting is: under setting [1], 94%; under setting [2], 95%; under setting [3], 97%; under setting [4], 95%.
Take `NC(Cc1cn(Cc2ccc(F)c(F)c2)c2ccccc12)C(=O)NO` (racemic) [Compound No. 108, (RS)-2-amino-3-[1-(3,4-difluorobenzyl)-1H-indol-3-yl]-N-hydroxypropionamide]: the “Maillard reaction-inhibiting activity (%)” value runs as follows: under setting [1], 102%; under setting [2], 103%; under setting [3], 104%; under setting [4], 104%.
Turning to `CC(C)(C)c1ccc(NC(=O)CC[C@H](N)C(=O)NO)cc1` [Compound No. 2, (S)-2-amino-4-(4-t-butylphenylaminocarbonyl)-N-hydroxybutyramide], the “Maillard reaction-inhibiting activity (%)” value runs as follows: under setting [1], 86%; under setting [2], 100%; under setting [3], 100%; under setting [4], 100%.
For `N[C@@H](CCC(=O)NC1CCCCC1)C(=O)NO` [Compound No. 5, (S)-2-amino-4-(cyclohexylaminocarbonyl)-N-hydroxybutyramide], the “Maillard reaction-inhibiting activity (%)” value by setting is: under setting [1], −3%; under setting [2], 5%; under setting [3], 35%; under setting [4], 97%.
As to `N[C@@H](CCC(=O)NCC(c1ccccc1)c1ccccc1)C(=O)NO` [Compound No. 6, (S)-2-amino-4-(2,2-diphenylethylaminocarbonyl)-N-hydroxybutyramide], the “Maillard reaction-inhibiting activity (%)” value runs as follows: under setting [1], 49%; under setting [2], 97%; under setting [3], 103%; under setting [4], 100%.
Regarding `N[C@@H](CCC(=O)NCc1ccccn1)C(=O)NO` [Compound No. 7, (S)-2-amino-4-(pyridin-2-ylmethylaminocarbonyl)-N-hydroxybutyramide], the “Maillard reaction-inhibiting activity (%)” value is given as −3% under setting [1], −4% under setting [2], 13% under setting [3] and 72% under setting [4].
`N[C@@H](CCCNC(=O)c1ccc([N+](=O)[O-])cc1)C(=O)NO` [Compound No. 15, (S)-2-amino-5-(4-nitrobenzoylamino)pentanoic acid hydroxyamide]: the “Maillard reaction-inhibiting activity (%)” value is −12% under setting [1], −2% under setting [2], 43% under setting [3] and 98% under setting [4].
With `N[C@@H](CCCNC(=O)Cc1ccc([N+](=O)[O-])cc1)C(=O)NO` [Compound No. 16, (S)-2-amino-5-(4-nitrophenylacetylamino)pentanoic acid hydroxyamide], the “Maillard reaction-inhibiting activity (%)” value reads like this: under setting [1], −7%; under setting [2], 11%; under setting [3], 71%; under setting [4], 98%.
In the case of `N[C@@H](CCCNC(=O)CC1CCCCC1)C(=O)NO` [Compound No. 19, (S)-2-amino-5-(cyclohexylacetylamino)pentanoic acid hydroxyamide], the “Maillard reaction-inhibiting activity (%)” value was determined as 10% under setting [1], 54% under setting [2], 95% under setting [3] and 101% under setting [4].
As to `CCCN(CCC)CCC[C@H](N)C(=O)NO` [Compound No. 25, (S)-2-amino-5-dipropylaminopentanoic acid hydroxyamide], the “Maillard reaction-inhibiting activity (%)” value is listed as 7% under setting [1], 6% under setting [2], 40% under setting [3] and 100% under setting [4].
The like results for `CCCCCN(CCCCC)CCC[C@H](N)C(=O)NO` [Compound No. 26, (S)-2-amino-5-dipentylaminopentanoic acid hydroxyamide] were, in that order, 11%, 17%, 68% and 100%.
Regarding `N[C@@H](CCCNC1CCCCC1)C(=O)NO` [Compound No. 27, (S)-2-amino-5-cyclohexylaminopentanoic acid hydroxyamide], the “Maillard reaction-inhibiting activity (%)” value by setting is: under setting [1], 1%; under setting [2], 7%; under setting [3], 32%; under setting [4], 100%.
For `Cc1ccc(CN(CCC[C@H](N)C(=O)NO)Cc2ccc(C)cc2)cc1` [Compound No. 28, (S)-2-amino-5-[bis-(4-methyl-benzyl)amino]pentanoic acid hydroxyamide] the same measures were 100%, 100%, 100% and 100%.
For the molecule `Cc1ccc(C(=O)Nc2ccc(C[C@H](N)C(=O)NO)cc2)cc1` [Compound No. 30, (S)-2-amino-3-[4-(4-methylbenzoyl)amino-phenyl]-N-hydroxypropionamide], the “Maillard reaction-inhibiting activity (%)” value under setting [1] is listed as 56%, the “Maillard reaction-inhibiting activity (%)” value under setting [2] is listed as 74%, the “Maillard reaction-inhibiting activity (%)” value under setting [3] came to 80% and the “Maillard reaction-inhibiting activity (%)” value under setting [4] was found to be 92%.
On to `CCCCC(=O)Nc1ccc(C[C@H](N)C(=O)NO)cc1` [Compound No. 31, (S)-2-amino-3-(4-valeroylaminophenyl)-N-hydroxypropionamide], for which the “Maillard reaction-inhibiting activity (%)” value by setting is: under setting [1], 29%; under setting [2], 72%; under setting [3], 100%; under setting [4], 100%.
Turning to `CC(C)(C)C(=O)Nc1ccc(C[C@H](N)C(=O)NO)cc1` [Compound No. 32, (S)-2-amino-3-(4-pivaloylaminophenyl)-N-hydroxypropionamide], the “Maillard reaction-inhibiting activity (%)” value under setting [1] is recorded as 23%, the “Maillard reaction-inhibiting activity (%)” value under setting [2] turned out to be 50%, the “Maillard reaction-inhibiting activity (%)” value under setting [3] came out at 89% and the “Maillard reaction-inhibiting activity (%)” value under setting [4] is listed as 102%.
Regarding `N[C@@H](Cc1ccc(NC(=O)Cc2ccc(F)cc2)cc1)C(=O)NO` [Compound No. 33, (S)-2-amino-3-{4-[2-(4-fluorophenyl)acetylamino]-phenyl}-N-hydroxypropionamide], the “Maillard reaction-inhibiting activity (%)” value runs as follows: under setting [1], 57%; under setting [2], 93%; under setting [3], 98%; under setting [4], 102%.
For `Cc1ccc(S(=O)(=O)Nc2ccc(C[C@H](N)C(=O)NO)cc2)cc1` [Compound No. 34, (S)-2-amino-3-[4-(toluen-4-ylsulfonylamino)phenyl]-N-hydroxypropionamide] the same measures were 37%, 98%, 102% and 102%.
Consider `COC(=O)Nc1ccc(C[C@H](N)C(=O)NO)cc1` [Compound No. 36, (S)-2-amino-3-(4-methoxycarbonylaminophenyl)-N-hydroxypropionamide], for which the “Maillard reaction-inhibiting activity (%)” value reads like this: under setting [1], 15%; under setting [2], 33%; under setting [3], 69%; under setting [4], 102%.
On to `CN(C)NC(=O)c1ccc(C[C@H](N)C(=O)NO)cc1` [Compound No. 37, (S)-2-amino-3-(4-dimethylaminocarbamoyl-phenyl)-N-hydroxypropionamide], for which the “Maillard reaction-inhibiting activity (%)” value is given as 1% under setting [1], 16% under setting [2], 35% under setting [3] and 94% under setting [4].
`CCCN(CCC)c1ccc(C[C@H](N)C(=O)NO)cc1` [Compound No. 38, (S)-2-amino-3-(4-dipropylamino-1-phenyl)-N-hydroxypropionamide]: the “Maillard reaction-inhibiting activity (%)” value under setting [1] was 100%, the “Maillard reaction-inhibiting activity (%)” value under setting [2] is on record as 100%, the “Maillard reaction-inhibiting activity (%)” value under setting [3] was found to be 100% and the “Maillard reaction-inhibiting activity (%)” value under setting [4] is 100%.
For the molecule `N[C@@H](Cc1ccc([N+](=O)[O-])cc1)C(=O)NO` [Compound No. 40, (S)-2-amino-3-(4-nitrophenyl)-N-hydroxypropionamide], the “Maillard reaction-inhibiting activity (%)” value by setting is: under setting [1], 37%; under setting [2], 49%; under setting [3], 96%; under setting [4], 100%.
